According to patent US11427548B2 (Arvinas Operations, Inc., priority 2015, dated 2022):
Read-outs that look alike come from different tables or passages of the source.

Target: T1, Androgen Receptor (Homo sapiens, UniProt P10275)
T1 construct: endogenous in cells; host or cells: VCaP cells
T1 sequence (P10275 1-920): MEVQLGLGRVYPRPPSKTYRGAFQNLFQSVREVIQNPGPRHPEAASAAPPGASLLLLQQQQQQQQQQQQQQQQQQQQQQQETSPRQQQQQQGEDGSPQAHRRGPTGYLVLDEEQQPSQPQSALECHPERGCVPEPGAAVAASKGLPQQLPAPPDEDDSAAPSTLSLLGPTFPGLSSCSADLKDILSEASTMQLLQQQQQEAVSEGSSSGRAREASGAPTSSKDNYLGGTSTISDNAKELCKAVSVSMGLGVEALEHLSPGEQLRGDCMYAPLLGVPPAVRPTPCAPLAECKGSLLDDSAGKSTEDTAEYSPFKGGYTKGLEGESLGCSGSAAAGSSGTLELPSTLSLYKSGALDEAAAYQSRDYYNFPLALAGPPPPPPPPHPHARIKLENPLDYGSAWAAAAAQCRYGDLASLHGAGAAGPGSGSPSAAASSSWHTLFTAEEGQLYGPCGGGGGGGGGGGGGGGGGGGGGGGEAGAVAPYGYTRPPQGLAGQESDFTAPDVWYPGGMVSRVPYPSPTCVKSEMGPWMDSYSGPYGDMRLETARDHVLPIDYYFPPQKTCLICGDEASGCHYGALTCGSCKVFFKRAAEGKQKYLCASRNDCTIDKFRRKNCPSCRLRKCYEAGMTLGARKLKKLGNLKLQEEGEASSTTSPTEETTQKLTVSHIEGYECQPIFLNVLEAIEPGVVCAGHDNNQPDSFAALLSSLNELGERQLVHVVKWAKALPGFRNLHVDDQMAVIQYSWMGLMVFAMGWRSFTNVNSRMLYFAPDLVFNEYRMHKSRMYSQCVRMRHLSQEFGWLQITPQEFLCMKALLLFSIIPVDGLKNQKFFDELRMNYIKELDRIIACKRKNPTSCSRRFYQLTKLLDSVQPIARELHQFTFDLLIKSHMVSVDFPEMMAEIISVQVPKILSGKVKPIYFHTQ
Assay: Androgen Receptor ELISA assay (PathScan AR ELISA) in VCaP cells: AR degradation, Dmax and DC50
Type: cell-based
Conditions: for DC50: read-out: VCaP DC50; for Dmax: VCaP, read-out: VCaP Dmax (%)
How it was run: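 After 24 h exposure of VCaP cells (charcoal-stripped serum, 0.1 nM R1881 agonist, 0.1% DMSO) to seven half-log compound concentrations, residual AR in lysates was measured by PathScan ELISA (TMB absorbance, 450 nm). Cells were plated at 30,000/well and grown at least 3 days beforehand.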

Cc1ncsc1-c1ccc([C@H](C)NC(=O)[C@@H]2C[C@@H](O)CN2C(=O)[C@@H](NC(=O)CC2(CN3CCN(c4ccc(C(=O)N[C@H]5C(C)(C)[C@H](Oc6ccc(C#N)c(Cl)c6)C5(C)C)cn4)CC3)COC2)C(C)(C)C)cc1 [Example 851, N-((1r,3r)-3-(3-chloro-4-cyanophenoxy)-2,2,4,4-tetramethylcyclobutyl)-6-(4-((3-(2-(((S)-1-((2S,4R)-4-hydroxy-2-(((S)-1-(4-(4-methylthiazol-5-yl)phenyl)ethyl)carbamoyl)pyrrolidin-1-yl)-3,3-dimethyl-1-oxobutan-2-yl)amino)-2-oxoethyl)oxetan-3-yl)methyl)piperazin-1-yl)nicotinamide]
DC50 (VCaP cells, Table 36): < 50 nM
Dmax (VCaP cells, Table 36): 26 to 50%

Cc1ncsc1-c1ccc(CNC(=O)[C@@H]2C[C@@H](O)CN2C(=O)[C@@H](NC(=O)COc2ccc3cc(COc4ccc(N5C(=S)N(c6ccc(C#N)c(C(F)(F)F)c6)C(=O)C5(C)C)cc4)ccc3c2)C(C)(C)C)cc1 [Example 378]
Dmax: 51 to 70%
DC50 (VCaP cells, Table 34): < 50 nM

CC(C)(C)[C@H](NC(=O)COCCCCCNc1ccc(C(=O)N[C@H]2C(C)(C)[C@H](Oc3ccc(C#N)c(Cl)c3)C2(C)C)cc1)C(=O)N1C[C@H](O)C[C@H]1C(=O)NCc1ccc(-n2cncn2)cc1 [Example 530]
DC50 (VCaP cells, Table 35): < 50 nM
Dmax (VCaP cells, Table 35): > 71%

Cc1ncsc1-c1ccc([C@H](C)NC(=O)[C@@H]2C[C@@H](O)CN2C(=O)[C@@H](NC(=O)COCCC2CCN(c3ccc(C(=O)N[C@H]4C(C)(C)[C@H](Oc5ccc(C#N)c(Cl)c5)C4(C)C)cc3)CC2)C(C)(C)C)cc1 [Example 456]
DC50 (VCaP cells, Table 35): < 50 nM
Dmax (VCaP cells, Table 35): > 71%

Cc1ncsc1-c1ccc(CNC(=O)[C@@H]2C[C@@H](O)CN2C(=O)[C@@H](NC(=O)COCCCCOc2ccc(-c3ccc(N4C(=S)N(c5ccc(C#N)c(C(F)(F)F)c5)C(=O)C4(C)C)cc3)cc2O)C(C)(C)C)cc1 [Example 408]
Dmax: 51 to 70%
DC50 (VCaP cells, Table 34): < 50 nM

CC(C)(C)[C@H](NC(=O)COCCCCCNc1ccc(C(=O)N[C@H]2C(C)(C)[C@H](Oc3ccc(C#N)c(Cl)c3)C2(C)C)cc1)C(=O)N1C[C@H](O)C[C@H]1C(=O)NCc1ccc(-c2ncccn2)cc1 [Example 535]
DC50 (VCaP cells, Table 35): < 50 nM
Dmax (VCaP cells, Table 35): 26 to 50%

Cc1ncoc1-c1ccc(CNC(=O)[C@@H]2C[C@@H](O)CN2C(=O)[C@@H](NC(=O)COCCCCOc2ccc(-c3ccc(N4C(=S)N(c5ccc(C#N)c(C(F)(F)F)c5)C(=O)C45CCC5)cc3)cc2)C(C)(C)C)cc1 [Example 119, (2S,4R)-1-[(2S)-2-(2-{4-[4-(4-{7-[4-cyano-3-(trifluoromethyl)phenyl]-8-oxo-6-sulfanylidene-5,7-diazaspiro[3.4]octan-5-yl}phenyl)phenoxy]butoxy}acetamido)-3,3-dimethylbutanoyl]-4-hydroxy-N-{[4-(4-methyl-1,3-oxazol-5-yl)phenyl]methyl}pyrrolidine-2-carboxamide]
Dmax: 51 to 70%
DC50 (concentration that caused 50% Androgen Receptor degradation, VCaP cells (Table 32)): < 50 nM

CC(C)(C)[C@H](NC(=O)COCCCCOc1ccc(-c2ccc(N3C(=S)N(c4cc(Cl)c(C#N)cc4F)C(=O)C3(C)C)cc2)cc1)C(=O)N1C[C@H](O)C[C@H]1C(=O)NCc1ccc(-c2cnco2)cc1 [Example 133, (2S,4R)-1-[(2S)-2-{2-[4-(4-{4-[3-(5-chloro-4-cyano-2-fluorophenyl)-5,5-dimethyl-4-oxo-2-sulfanylideneimidazolidin-1-yl]phenyl}phenoxy)butoxy]acetamido}-3,3-dimethylbutanoyl]-4-hydroxy-N-{[4-(1,3-oxazol-5-yl)phenyl]methyl}pyrrolidine-2-carboxamide]
Dmax: < 25%

Cc1ncsc1-c1ccc(CNC(=O)[C@@H]2C[C@@H](O)CN2C(=O)[C@@H](NC(=O)CN2CCN(CCOc3ccc(C(=O)N[C@H]4C(C)(C)[C@H](Oc5ccc(C#N)c(Cl)c5)C4(C)C)cc3)CC2)C(C)(C)C)cc1 [Example 645, (2S,4R)-1-((S)-2-(2-(4-(2-(4-(((1r,3r)-3-(3-chloro-4-cyanophenoxy)-2,2,4,4-tetramethylcyclobutyl)carbamoyl)phenoxy)eth-yl)piperazin-1-yl)acetamido)-3,3-dimethylbutanoyl)-4-hydroxy-N-(4-(4-methylthiazol-5-yl)benzyl)pyrrolidine-2-carboxamide]
DC50 (VCaP cells, Table 36): < 50 nM
Dmax (VCaP cells, Table 36): 51 to 70%
